Patent publication US11548923B2, “Peptide compositions and methods of use thereof for disrupting TEAD interactions” (Fred Hutchinson Cancer Center, priority 2017, dated 2023)

System: 8×GTIIC (TEAD luciferase reporter)
Assay: Cytosolic peptide expression with 8×GTIIC TEAD luciferase reporter
Assay type: cell-based
Conditions: mCherry-T2a-peptide co-transfected with FLAG-YAP and 8×GTIIC; vs. YAP only
Text: Cytosolic Peptide Expression. Peptides, FLAG-tagged or not, can be cloned into a mammalian expression vector consisting of a CMV promoter, then a monocistronic mCherry-T2a-peptide sequence. These can be transfected, along with (where indicated) pFLAG-YAP1 and 8×GTIIC-luciferase (Addgene plasmid #34615) into 293T cells. 24 hrs post-transfection, cells can be either harvested for luminescence (ONE-Glo, Promega) or Western blot (anti-FLAG M2, Sigma). Protein Transfection with dfTAT Reagent. Solution was diluted to 50 μM in PBS for a 10× working stock, for a final concentration of 5 μM in culture wells. […] For confirmation of peptide cell penetration, 293T and HeLa cells can be plated in a 96-well plate in DMEM with 10% FBS, 1× penicillin/streptomycin (Pen/Strep) and grown overnight to ˜50% confluence. Cells can be gently washed 3 times with PBS containing 1 mM CaCl2) and 0.5 mM MgCl2, then 2 times in serum-free DMEM. Wells (50 μL total) received either 5 μM (final) peptide in PBS, or PBS alone, and can also receive either 5 μM (final) dfTAT reagent in PBS, or PBS alone, before a 60 minute incubation at 37° C. and 5% CO2 in a humidified tissue culture incubator. After incubation, cells can be gently washed 3 times in PBS, which can be followed by fixation at 4° C. for 10 minutes with 4% formaldehyde in PBS. […]

Sequence: GSPDEYIERAKECCKKGDIQCCLRIFDESKDPNVMLICLFCW [SEQ ID NO: 12]
- TEAD luciferase reporter activity (relative luminescence units): reduced
